Measured values reported in patent publication EP0403882A2, “Indole derivatives and processes for preparation thereof” (FUJISAWA PHARMACEUTICAL CO., LTD., priority 1989, dated 1990).

What was measured:
[1] = tested on: Benzold-Jarisch reflex; experiment: Inhibition of Benzold-Jarisch reflex (bradycardic response to 2-methyl-5-hydroxytryptamine in anesthetized rats); format: in vivo, Male Sprague-Dawley rats; settings: dose 3.2 μg/kg iv, given 5 minutes before 2-methyl-5-hydroxytryptamine (32 ug/kg, iv), urethane-anesthetized rats
Text: (A) Inhibition of Benzold-Jarisch reflex
Male Sprague-Dawley rats weighing 260-350 g were anesthetized intraperitoneally with 1.25 g/kg urethane.
Blood pressure and heart rate were monitored continuously from the left common carotid artery with a pressure transducer. A right femoral vein was connulated for the intravenous injection (iv) of drugs. The trachea was also connulated to ease the respiration.
Rats were given a rapid bolus injection of 2-methyl-5-hydroxytryptamine (32 u.g/kg, iv) to establish the control bradycardic response. Once the heart rate returned to base line, the .rats were given the test compound (iv), followed by 5-minutes interval and another bolus injection of 2-methyl-5-hydroxytryptamine (32 ug/kg, iv).

[2] = tested on: Cisplatin-induced vomiting; experiment: Inhibition of Cisplatin-induced vomiting; format: in vivo, female beagles; settings: dose 100 μg/kg intravenously twice, 10 minutes prior to and 90 minutes after Cisplatin (3.2 mg/kg, iv); observed up to 5 hours
Protocol: (B) Inhibition of Cisplatin-induced vomiting
Nonfasted female beagles weighing about 10 kg were administered test compound or saline intravenously twice 10 minutes prior to and 90 minutes after Cisplatin dosing (3.2 mg/kg, iv).
Cisplatin was dissolved in 0.9% warm saline with a final concentration of 3 mgiml and used immediately.

Cc1cn(C(=O)CC2CC3CCC(C2)N3C)c2ccccc12.Cl (centres unmarked) [Example 2, 3-methyl-1-[(8-methyl-8-azabicyclo[3.2.1]oct-3-yl)acetyl]indole hydrochloride]
Inhibition (%) [1]: 52.9%
Inhibition (%) [2]: 95.2%
